The assay addresses Cyclin-dependent kinase 1 (Homo sapiens, UniProt P06493). In words: Inhibition of CDK1.
Chain of Cyclin-dependent kinase 1 (P06493 whole entry): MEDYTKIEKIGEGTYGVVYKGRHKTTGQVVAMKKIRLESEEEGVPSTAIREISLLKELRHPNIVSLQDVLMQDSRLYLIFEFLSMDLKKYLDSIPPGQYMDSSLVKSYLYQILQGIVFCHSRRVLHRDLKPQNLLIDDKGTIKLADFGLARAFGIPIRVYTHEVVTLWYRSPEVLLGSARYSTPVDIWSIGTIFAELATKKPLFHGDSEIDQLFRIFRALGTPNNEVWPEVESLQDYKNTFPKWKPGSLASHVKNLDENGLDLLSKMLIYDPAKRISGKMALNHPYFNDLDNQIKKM
In general, IC50 refers to the point on the concentration scale where inhibition reaches its midpoint. A higher IC50 goes with a need for much substance. Turning to `OCCNC(=S)Nc1ccc(C(F)(F)F)cc1`, 1400 nM corresponded to half-maximal inhibition (IC50).
The value for `OCCSC(=S)Nc1ccc(Cl)c(Cl)c1` was 2500 nM; that for `O=C(NCCCO)c1cc(Cl)ccc1O` was 2530 nM.
The value for `OCCN(CCO)Cc1cc(Cl)c2cccnc2c1O` was 3230 nM; that for `CCN(CCO)CCCNc1ccnc2cc(Cl)ccc12` was 830 nM.
To `COC(=O)c1cc(NC(C)=O)ccc1S(=O)(=O)c1ccc(NC(C)=O)cc1C(=O)OC` belongs 910 nM; to `Cc1cc2[nH]c(=S)n([C@@H]3O[C@H](CO)[C@@H](O)[C@H]3O)c2cc1C`, 2100 nM.
Consider `O=Cc1cc(CCCCCCc2ccc(O)c(C=O)c2)ccc1O`, for which it took 4900 nM to reach half-maximal inhibition (IC50).
Compound `C[C@H](N[C@@H](C)COc1ccccc1)[C@@H](O)c1ccc(O)cc1` gave an IC50 of 2900 nM.
`COc1cc(OC)nc(NC(=O)NS(=O)(=O)c2cc(NC=O)ccc2C(=O)N(C)C)n1` [FORAMSULFURON]: the IC50 was found to be 3600 nM.
To `O=c1c(O)c(-c2ccc(O)c(O)c2)oc2cc(O)cc(O)c12` [QUERCETIN] belongs 450 nM.

Source of the values: ChEMBL document CHEMBL1240477, “Discovery of novel CDK1 inhibitors by combining pharmacophore modeling, QSAR analysis and in silico screening followed by in vitro bioassay” (Eur J Med Chem, 2010).
